The results in this text go back to ChEMBL document CHEMBL1201862, “PubChem BioAssay data set” (2004).

Structures are written as SMILES. Activity calls are given as the source filed them.

Assay [1] concerns the target T1, Cysteine protease ATG4B (Homo sapiens, UniProt Q9Y4P1).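 Note: Fluorescence-based dose-response confirmation assay measuring inhibition of ATG4B activity.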
T1 sequence (Q9Y4P1 whole entry): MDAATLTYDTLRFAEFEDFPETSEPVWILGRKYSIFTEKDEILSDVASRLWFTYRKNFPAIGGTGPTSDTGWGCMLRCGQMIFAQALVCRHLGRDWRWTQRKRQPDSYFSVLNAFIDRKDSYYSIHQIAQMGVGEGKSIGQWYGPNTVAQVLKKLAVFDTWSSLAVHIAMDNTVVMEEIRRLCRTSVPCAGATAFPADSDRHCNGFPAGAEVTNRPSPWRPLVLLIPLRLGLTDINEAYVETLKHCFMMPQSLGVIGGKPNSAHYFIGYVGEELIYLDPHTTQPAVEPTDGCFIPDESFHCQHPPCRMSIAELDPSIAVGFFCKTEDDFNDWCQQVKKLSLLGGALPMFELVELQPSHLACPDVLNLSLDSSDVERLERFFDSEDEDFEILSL
Type of assay: functional.

Assay [2] addresses Phospholipase A2 (Homo sapiens, UniProt P04054). Format: functional.
The test system of assay [3] is Vero. Kind of assay: Vero cell cytotoxicity, cytotoxicity control for flavivirus capping enzyme inhibitors (AID 588742). Type of assay: functional. The note with it: Chlorocebus sabaeus.
For assay [4], the target named is Beta-galactosidase (Escherichia coli, UniProt Q8VNN2). The experiment in a line: beta-galactosidase enzyme inhibitors and activators, dose response, artefact control for CCR6 antagonist project, biochemical, E. coli enzyme, set 3 (AID 504712). Type of assay: functional.
Beta-galactosidase, sequence (Q8VNN2 whole entry): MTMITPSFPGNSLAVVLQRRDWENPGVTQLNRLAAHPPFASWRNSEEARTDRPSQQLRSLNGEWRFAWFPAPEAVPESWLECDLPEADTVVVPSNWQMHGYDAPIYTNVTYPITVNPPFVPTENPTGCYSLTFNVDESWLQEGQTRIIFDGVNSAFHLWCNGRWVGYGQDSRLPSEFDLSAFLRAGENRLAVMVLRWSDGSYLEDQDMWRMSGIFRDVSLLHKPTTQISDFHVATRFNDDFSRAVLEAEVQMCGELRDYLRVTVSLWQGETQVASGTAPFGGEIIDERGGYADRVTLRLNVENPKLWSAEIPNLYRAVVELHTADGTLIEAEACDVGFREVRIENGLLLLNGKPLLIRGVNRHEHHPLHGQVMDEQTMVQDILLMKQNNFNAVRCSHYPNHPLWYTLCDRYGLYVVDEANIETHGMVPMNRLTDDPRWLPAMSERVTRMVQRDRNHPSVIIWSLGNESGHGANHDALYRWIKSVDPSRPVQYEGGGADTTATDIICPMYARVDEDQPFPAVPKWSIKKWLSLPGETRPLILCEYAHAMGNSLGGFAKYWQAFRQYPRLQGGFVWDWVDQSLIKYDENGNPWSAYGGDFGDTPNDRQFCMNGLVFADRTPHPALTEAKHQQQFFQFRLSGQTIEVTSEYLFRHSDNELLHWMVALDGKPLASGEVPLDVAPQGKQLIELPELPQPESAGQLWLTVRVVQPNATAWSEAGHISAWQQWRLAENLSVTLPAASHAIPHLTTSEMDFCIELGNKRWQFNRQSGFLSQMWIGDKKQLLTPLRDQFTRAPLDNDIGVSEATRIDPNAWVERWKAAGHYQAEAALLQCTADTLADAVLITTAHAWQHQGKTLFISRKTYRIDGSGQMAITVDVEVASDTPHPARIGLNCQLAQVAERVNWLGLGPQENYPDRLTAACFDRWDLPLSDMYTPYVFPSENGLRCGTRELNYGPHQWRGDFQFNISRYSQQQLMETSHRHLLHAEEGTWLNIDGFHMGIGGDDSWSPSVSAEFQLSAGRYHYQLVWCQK
The target of assay [5] is Large T antigen (Simian virus 40, UniProt P03070). Format: functional, Betapolyomavirus macacae.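 Note: Confirmatory-stage PubChem screen for compounds that inhibit SV40 T antigen.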
Large T antigen, sequence (P03070 whole entry): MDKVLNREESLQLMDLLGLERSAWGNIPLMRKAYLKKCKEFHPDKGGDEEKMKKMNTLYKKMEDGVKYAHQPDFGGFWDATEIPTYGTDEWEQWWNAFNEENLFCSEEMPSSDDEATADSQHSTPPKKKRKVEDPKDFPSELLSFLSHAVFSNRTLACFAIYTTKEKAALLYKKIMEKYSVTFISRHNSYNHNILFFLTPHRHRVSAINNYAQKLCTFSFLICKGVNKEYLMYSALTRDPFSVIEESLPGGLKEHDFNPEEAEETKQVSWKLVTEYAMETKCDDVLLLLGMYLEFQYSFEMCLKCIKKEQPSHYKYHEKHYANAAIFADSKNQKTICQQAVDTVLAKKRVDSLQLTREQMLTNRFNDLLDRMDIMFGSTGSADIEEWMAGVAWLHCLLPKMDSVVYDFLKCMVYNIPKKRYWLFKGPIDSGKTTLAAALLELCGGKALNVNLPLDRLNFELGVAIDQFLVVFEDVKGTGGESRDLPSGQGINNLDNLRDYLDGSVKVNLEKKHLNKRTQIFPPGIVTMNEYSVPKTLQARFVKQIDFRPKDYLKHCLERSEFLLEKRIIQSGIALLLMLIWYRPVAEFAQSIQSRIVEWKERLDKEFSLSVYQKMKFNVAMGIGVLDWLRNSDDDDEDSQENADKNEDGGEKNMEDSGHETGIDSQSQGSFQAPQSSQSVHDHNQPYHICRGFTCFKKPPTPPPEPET
In assay [6] the target is T2, Replicative DNA helicase DnaB (Mycobacterium tuberculosis, UniProt P9WMR3).
T2 sequence (P9WMR3 whole entry): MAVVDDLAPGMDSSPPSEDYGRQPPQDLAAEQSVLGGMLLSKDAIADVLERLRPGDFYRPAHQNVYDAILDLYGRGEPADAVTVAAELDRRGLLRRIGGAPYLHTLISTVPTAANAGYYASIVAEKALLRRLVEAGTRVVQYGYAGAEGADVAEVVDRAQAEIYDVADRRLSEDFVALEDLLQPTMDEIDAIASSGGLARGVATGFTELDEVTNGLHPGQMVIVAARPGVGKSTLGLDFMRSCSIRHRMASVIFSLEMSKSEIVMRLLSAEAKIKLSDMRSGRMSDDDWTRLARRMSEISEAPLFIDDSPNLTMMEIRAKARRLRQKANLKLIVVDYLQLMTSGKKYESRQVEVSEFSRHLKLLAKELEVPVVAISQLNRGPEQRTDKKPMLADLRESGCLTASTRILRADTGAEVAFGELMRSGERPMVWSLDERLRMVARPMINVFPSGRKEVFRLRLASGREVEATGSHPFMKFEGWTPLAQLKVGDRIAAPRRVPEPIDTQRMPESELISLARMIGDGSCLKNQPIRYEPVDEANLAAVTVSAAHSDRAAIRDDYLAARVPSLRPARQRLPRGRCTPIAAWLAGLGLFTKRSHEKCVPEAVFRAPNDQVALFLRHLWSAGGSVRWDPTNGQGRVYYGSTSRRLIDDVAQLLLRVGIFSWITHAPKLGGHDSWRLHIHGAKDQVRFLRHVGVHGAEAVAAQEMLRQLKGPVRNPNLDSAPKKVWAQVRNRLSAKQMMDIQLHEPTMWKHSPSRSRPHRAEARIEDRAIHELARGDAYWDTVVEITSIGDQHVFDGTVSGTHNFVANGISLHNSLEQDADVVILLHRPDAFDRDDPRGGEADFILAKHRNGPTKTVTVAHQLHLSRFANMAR
Kind of assay: DnaB intein splicing inhibitors, dose response, biochemical, cell-free fluorescence (AID 449749). Type of assay: functional.

Assay [7] has as its target T3, Microphthalmia-associated transcription factor (Homo sapiens, UniProt O75030).
T3 sequence (O75030 whole entry): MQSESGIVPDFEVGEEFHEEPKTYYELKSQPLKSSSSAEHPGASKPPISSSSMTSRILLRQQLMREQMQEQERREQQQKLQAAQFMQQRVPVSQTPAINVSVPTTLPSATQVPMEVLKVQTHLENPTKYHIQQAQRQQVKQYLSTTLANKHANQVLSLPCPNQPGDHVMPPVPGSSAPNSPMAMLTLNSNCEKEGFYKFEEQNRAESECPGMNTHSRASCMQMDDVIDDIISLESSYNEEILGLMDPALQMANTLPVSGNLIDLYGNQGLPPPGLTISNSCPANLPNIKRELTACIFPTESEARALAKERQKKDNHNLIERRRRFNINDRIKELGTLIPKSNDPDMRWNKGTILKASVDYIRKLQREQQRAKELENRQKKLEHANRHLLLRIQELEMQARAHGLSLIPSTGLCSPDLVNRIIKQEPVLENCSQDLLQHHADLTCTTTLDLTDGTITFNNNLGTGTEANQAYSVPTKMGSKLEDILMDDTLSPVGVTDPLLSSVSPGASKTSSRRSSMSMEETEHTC
The experiment in a line: TRPM1 promoter luciferase signal decrease, dose response, MITF inhibitor project, cell-based, SK-MEL-5, cherry-picked, set 3 (AID 493073).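 Note: SK-MEL-5 melanoma cells with luciferase driven by the MITF target TRPM1 promoter.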 Type of assay: functional.

Assay [8] concerns the target T4, Zinc finger protein mex-5 (Caenorhabditis elegans, UniProt Q9XUB2).
T4 sequence (Q9XUB2 whole entry): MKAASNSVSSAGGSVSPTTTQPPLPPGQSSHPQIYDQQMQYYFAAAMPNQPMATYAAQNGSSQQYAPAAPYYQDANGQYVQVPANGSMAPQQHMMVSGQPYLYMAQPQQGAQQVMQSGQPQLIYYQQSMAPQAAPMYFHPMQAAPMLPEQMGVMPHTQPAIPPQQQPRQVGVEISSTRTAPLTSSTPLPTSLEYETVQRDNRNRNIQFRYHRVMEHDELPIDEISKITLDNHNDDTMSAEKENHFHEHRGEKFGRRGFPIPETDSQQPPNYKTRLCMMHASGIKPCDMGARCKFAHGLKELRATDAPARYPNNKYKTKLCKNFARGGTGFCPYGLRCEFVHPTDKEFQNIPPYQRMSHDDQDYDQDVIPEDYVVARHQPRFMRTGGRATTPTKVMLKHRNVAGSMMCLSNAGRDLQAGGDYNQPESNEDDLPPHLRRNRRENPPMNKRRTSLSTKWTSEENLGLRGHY
Kind of assay: MEX-5/TCR-2 RNA interaction inhibitors, dose response, biochemical, C. elegans, fluorescence polarization (AID 1960).

Assay [9] deals with T5, RNA-binding protein pos-1 (Caenorhabditis elegans, UniProt G5EF15).
T5 sequence (G5EF15 whole entry): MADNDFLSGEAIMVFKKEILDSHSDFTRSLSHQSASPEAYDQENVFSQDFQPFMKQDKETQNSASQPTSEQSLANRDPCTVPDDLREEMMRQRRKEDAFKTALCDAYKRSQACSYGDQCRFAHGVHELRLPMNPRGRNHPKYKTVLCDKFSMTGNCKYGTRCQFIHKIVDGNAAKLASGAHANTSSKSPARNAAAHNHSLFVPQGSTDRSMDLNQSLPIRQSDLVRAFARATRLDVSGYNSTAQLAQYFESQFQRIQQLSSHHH
Kind of assay: inhibitors of POS-1/mex-3 RNA binding, dose response, biochemical, fluorescence polarization (AID 1964).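 Note: purified POS-1 fused to maltose binding protein made in E. coli; potency of compounds blocking POS-1 binding to fluorescent RNA.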

The target in assay [10] is T6, Protein RecA (Mycobacterium tuberculosis, UniProt P9WHJ3).
T6 sequence (P9WHJ3 whole entry): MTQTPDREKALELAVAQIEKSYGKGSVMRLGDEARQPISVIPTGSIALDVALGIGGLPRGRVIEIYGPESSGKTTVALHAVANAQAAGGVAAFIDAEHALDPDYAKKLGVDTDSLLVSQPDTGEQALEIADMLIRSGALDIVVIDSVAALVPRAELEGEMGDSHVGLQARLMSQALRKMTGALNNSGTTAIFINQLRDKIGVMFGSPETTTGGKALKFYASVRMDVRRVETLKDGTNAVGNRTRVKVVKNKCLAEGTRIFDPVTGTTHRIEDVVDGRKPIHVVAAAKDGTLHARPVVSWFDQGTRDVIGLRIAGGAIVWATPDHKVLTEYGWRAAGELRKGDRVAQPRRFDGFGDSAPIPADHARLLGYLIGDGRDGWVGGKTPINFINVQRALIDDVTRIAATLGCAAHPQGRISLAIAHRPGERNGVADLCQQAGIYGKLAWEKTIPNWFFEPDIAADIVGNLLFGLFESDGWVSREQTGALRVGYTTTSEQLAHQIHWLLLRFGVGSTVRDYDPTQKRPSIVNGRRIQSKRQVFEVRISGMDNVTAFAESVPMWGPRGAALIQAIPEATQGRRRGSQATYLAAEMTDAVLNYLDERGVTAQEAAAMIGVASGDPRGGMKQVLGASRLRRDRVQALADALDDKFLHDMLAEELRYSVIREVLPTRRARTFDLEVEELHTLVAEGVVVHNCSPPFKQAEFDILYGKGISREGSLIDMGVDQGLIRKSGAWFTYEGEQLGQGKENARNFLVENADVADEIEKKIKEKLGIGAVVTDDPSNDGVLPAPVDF
Kind of assay: Fluorescence Cell-Free Homogeneous Dose Retest to Identify Inhibitors of RecA-Intein Splicing Activity. [Related pubchem assays (depositor defined):AID2097, AID2223, AID489010, AID492950]. Format: functional.

In assay [11] the target is T7, Ubiquitin-conjugating enzyme E2 N (Homo sapiens, UniProt P61088).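 Note: Dose-response confirmation in a TR-FRET assay detecting UBC13-driven polyubiquitin chain formation, inhibition measured.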
T7 sequence (P61088 whole entry): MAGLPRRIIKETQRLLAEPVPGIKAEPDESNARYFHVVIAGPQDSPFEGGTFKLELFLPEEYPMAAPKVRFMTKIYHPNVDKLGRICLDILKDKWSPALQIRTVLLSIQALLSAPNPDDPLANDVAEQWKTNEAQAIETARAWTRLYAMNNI
Format: functional.

Assay [12] addresses T8, DNA repair protein RAD52 homolog (Homo sapiens, UniProt P43351).
T8 sequence (P43351 whole entry): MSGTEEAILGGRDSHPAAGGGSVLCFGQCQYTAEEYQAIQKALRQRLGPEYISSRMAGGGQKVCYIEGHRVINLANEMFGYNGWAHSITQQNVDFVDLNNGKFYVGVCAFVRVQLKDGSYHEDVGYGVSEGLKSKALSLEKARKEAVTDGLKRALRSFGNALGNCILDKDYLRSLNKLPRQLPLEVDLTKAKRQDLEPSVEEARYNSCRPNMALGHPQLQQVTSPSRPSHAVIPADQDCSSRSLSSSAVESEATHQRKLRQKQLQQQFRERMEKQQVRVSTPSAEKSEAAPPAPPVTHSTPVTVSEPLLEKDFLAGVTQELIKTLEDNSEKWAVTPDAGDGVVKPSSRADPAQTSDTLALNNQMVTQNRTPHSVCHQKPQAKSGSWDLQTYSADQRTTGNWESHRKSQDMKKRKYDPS
Format: functional, biochemical.

Phospholipase A2, sequence (P04054 whole entry): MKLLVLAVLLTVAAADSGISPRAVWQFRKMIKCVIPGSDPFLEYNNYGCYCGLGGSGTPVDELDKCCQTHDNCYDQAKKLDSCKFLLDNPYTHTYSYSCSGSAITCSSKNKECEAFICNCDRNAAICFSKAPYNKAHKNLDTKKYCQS

In the case of `CC(=C\c1ccccc1)/C=C1/SC(=S)N(CCCC(=O)O)C1=O`, the IC50 in [1] was 17.1 µM (active); in assay [2], 34.7 µM (inactive).

On to `CCN(CC)CCNC(=S)NC(=O)c1cn(-c2ccccc2)nc1-c1ccc(OC)cc1`, for which the CC50 in [3] was > 40 µM (active). The IC50 in assay [4] was > 66.6 µM (inactive).

Turning to `CCOc1c(Br)cc(CNc2ccc(N3CCOCC3)cc2)cc1OC`, the CC50 in [3] was > 40 µM (active). Further, the IC50 in assay [5] was 8.16 µM (active).

Turning to `COC(=O)c1ccc(-n2c(C)cc(C(=O)CCl)c2C)cc1`, the AC50 in assay [6] was 5.18 µM (active); in assay [7], 7.46 µM (active). In addition, the EC50 in [8] is > 300 µM (not active); in [9] it was > 300 µM (not active); in [10], 22.7 µM (active).

As to `COc1cccc(/C=C2/Sc3ccc(C(=O)NCCN4CCCC4)cc3NC2=O)c1`, in assay [11], the IC50 was > 20 µM (inactive). Also, the results for the AC50 in [7] and in [12] were 17.9 µM (active) and 4.28 µM (active), respectively.
